From the Kinase Knowledgebase extract (Sharma et al. 2016) come the findings set out here.

In general, inhibition refers to the percentage by which the read-out fell short of the control. As a reminder, the IC50 is the midpoint of a concentration-inhibition curve. High values mean weaker potency, low ones greater potency.

This assay concerns the target MAPK14 (human) (UniProt Q16539). The experiment in a line: Inhibition of LPS Stimulated TNF Production by U937 Cells. To be noted: for inhibition: concentration not given here.

Sequence of MAPK14 (human) (Q16539 whole entry, looked up): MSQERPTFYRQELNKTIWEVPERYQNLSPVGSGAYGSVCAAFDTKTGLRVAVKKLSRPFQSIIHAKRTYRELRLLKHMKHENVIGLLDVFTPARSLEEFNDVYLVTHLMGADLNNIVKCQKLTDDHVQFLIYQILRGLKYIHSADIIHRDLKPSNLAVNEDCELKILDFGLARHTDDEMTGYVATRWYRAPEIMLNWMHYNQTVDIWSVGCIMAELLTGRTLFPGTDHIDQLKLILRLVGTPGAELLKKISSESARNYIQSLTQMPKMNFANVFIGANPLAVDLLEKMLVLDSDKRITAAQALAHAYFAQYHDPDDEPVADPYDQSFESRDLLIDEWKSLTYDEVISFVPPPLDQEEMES

Compound `CNC(=O)CC[C@H](NC(=O)Nc1c(C)cccc1C)c1[nH]nc(-c2ccc(F)cc2)c1-c1ccncc1` returned an inhibition of 9%.
In turn, `O=S(=O)(c1cccc(Br)c1)N1CCC(c2[nH]nc(-c3ccc(F)cc3)c2-c2ccncc2)CC1` displayed a concentration for half-maximal inhibition (IC50) of more than 1 µM.
In turn, `C[C@@H](NC(=O)Nc1ccc(F)cc1)c1[nH]nc(-c2ccc(F)cc2)c1-c1ccncc1` yielded an inhibition of 35%.
Turning to `O=C(NCCCc1[nH]nc(-c2ccc(F)cc2)c1-c1ccncc1)NCCCN1CCCC1=O`, the IC50 is more than 1 µM.
`O=C(NCc1[nH]nc(-c2ccc(F)cc2)c1-c1ccncc1)c1cc(F)c(F)cc1F` registered an inhibition of 36%.
The same measure, in the same setting: under `C[C@@H](NC(=O)c1ccccc1F)c1[nH]nc(-c2ccc(F)cc2)c1-c1ccncc1` stands 75%; under `O=C(O)c1ccccc1S(=O)(=O)NCCc1[nH]nc(-c2ccc(F)cc2)c1-c1ccncc1`, 40%.
With `Cc1ccc(S(=O)(=O)NCc2[nH]nc(-c3ccc(F)cc3)c2-c2ccncc2)cc1`, the concentration for half-maximal inhibition (IC50) is 1.29 µM.
With `C[C@H](NS(=O)(=O)c1cccc2cccnc12)c1[nH]nc(-c2ccc(F)cc2)c1-c1ccncc1`, the inhibition was 58%.
Same read-out and setting: under `C[C@@H](NC(=O)N(C)C)c1[nH]nc(-c2ccc(F)cc2)c1-c1ccncc1` stands 27%; under `O=S(=O)(NCc1[nH]nc(-c2ccc(F)cc2)c1-c1ccncc1)c1ccc(S(=O)(=O)c2ccccc2)s1`, 64%.
In the case of `OCCn1cc(-c2ccncc2)c(-c2ccc(F)cc2)n1`, the IC50 is 0.198 µM.
In turn, `C[C@@H](NC(=O)c1ccncc1)c1[nH]nc(-c2ccc(F)cc2)c1-c1ccncc1` returned an inhibition of 36%.
As to `Fc1ccc(-c2[nH]nc(NCCCN3CCOCC3)c2-c2ccncc2)cc1`, the IC50 came out at 0.09 µM.
On to `COC(=O)CCCCCCC(=O)NCc1[nH]nc(-c2ccc(F)cc2)c1-c1ccncc1`, for which the inhibition came out at 9%.
Regarding `C[C@H](NC(=O)N1CCCC1)c1[nH]nc(-c2ccc(F)cc2)c1-c1ccncc1`, the IC50 was found to be 2.17 µM.
For `CC(C)(C)C(=O)N[C@@H](Cc1ccccc1)c1[nH]nc(-c2ccc(F)cc2)c1-c1ccncc1`, the inhibition turned out to be 22%.
Still for that read-out and setting: under `Cc1cc(C)c(C(=O)N[C@@H](C)c2[nH]nc(-c3ccc(F)cc3)c2-c2ccncc2)c(C)c1` stands 39%; under `O=C(N[C@H](Cc1ccccc1)c1[nH]nc(-c2ccc(F)cc2)c1-c1ccncc1)[C@@H]1CCCN1`, 11%; under `C[C@H](NS(=O)(=O)c1cc(S(=O)(=O)c2ccccc2)cs1)c1[nH]nc(-c2ccc(F)cc2)c1-c1ccncc1`, 90%.
`CCc1ccc(S(=O)(=O)NCc2[nH]nc(-c3ccc(F)cc3)c2-c2ccncc2)cc1` registered an inhibition of 8%.
Same read-out and setting: under `C[C@H](NC(=O)c1cccc(C(F)(F)F)c1F)c1[nH]nc(-c2ccc(F)cc2)c1-c1ccncc1` stands 15%.
The same measure, in the same setting: under `O=C(N[C@H](Cc1ccccc1)c1[nH]nc(-c2ccc(F)cc2)c1-c1ccncc1)c1ccncc1` stands 25%.
Compound `CCNC(=O)N1CCC(c2[nH]nc(-c3ccc(F)cc3)c2-c2ccncc2)CC1` returned a concentration for half-maximal inhibition (IC50) of 0.73 µM.
The same measure, in the same setting: under `Fc1ccc(-c2[nH]nc(-c3ccccc3)c2-c2ccncc2)cc1` stands 0.077 µM.
As for `C[C@@H](NS(=O)(=O)c1ccc(-c2ccccc2)cc1)c1[nH]nc(-c2ccc(F)cc2)c1-c1ccncc1`, the inhibition is 95%.
Same read-out and setting: under `C[C@@H](NC(=O)c1ccc(F)cc1C(F)(F)F)c1[nH]nc(-c2ccc(F)cc2)c1-c1ccncc1` stands 90%.
On the same count and under the same terms, under `C[C@@H](NC(=O)N[C@H](C)c1[nH]nc(-c2ccc(F)cc2)c1-c1ccncc1)c1ccccc1` stands 28%.
Compound `C[C@@H](NS(=O)(=O)c1ccc(F)cc1)c1[nH]nc(-c2ccc(F)cc2)c1-c1ccncc1` had an IC50 of 0.9 µM.
In turn, `C[C@@H](NS(=O)(=O)c1ccccc1Cl)c1[nH]nc(-c2ccc(F)cc2)c1-c1ccncc1` yielded an inhibition of 95%.
The same measure, in the same setting: under `O=C(NCCc1ccccc1)NCc1[nH]nc(-c2ccc(F)cc2)c1-c1ccncc1` stands 9%.
The same measure, in the same setting: under `C[C@@H](NS(=O)(=O)c1ccc(F)cc1F)c1[nH]nc(-c2ccc(F)cc2)c1-c1ccncc1` stands 55%.
On the same count and under the same terms, under `C[C@@H](NS(=O)(=O)c1ccc(S(=O)(=O)c2ccccc2)s1)c1[nH]nc(-c2ccc(F)cc2)c1-c1ccncc1` stands 88%; under `O=S(=O)(NCCc1[nH]nc(-c2ccc(F)cc2)c1-c1ccncc1)c1ccc(Cl)cc1Cl`, 31%; under `CCOC(=O)NCc1[nH]nc(-c2ccc(F)cc2)c1-c1ccncc1`, 48%.
The compound `C[C@H](NS(=O)(=O)c1ccc(CNC(=O)c2ccccc2)s1)c1[nH]nc(-c2ccc(F)cc2)c1-c1ccncc1` gave an inhibition of 83%.
Compound `C[C@H](NS(=O)(=O)c1cc(Cl)cc(Cl)c1)c1[nH]nc(-c2ccc(F)cc2)c1-c1ccncc1` registered an inhibition of 65%.
Same read-out and setting: under `COc1ccc(CC(=O)N[C@H](C)c2[nH]nc(-c3ccc(F)cc3)c2-c2ccncc2)cc1OC` stands 28%; under `C[C@@H](NC(=O)c1ccccc1Br)c1[nH]nc(-c2ccc(F)cc2)c1-c1ccncc1`, 87%.
In the case of `O=C(NCc1[nH]nc(-c2ccc(F)cc2)c1-c1ccncc1)[C@H]1CCCN1`, the half-inhibitory concentration (IC50) was more than 1 µM.
For the compound `Cn1cc(-c2ccncc2)c(-c2ccc3c(c2)OCO3)n1`, the IC50 was determined as 0.323 µM.
On to `O=C(NCCc1[nH]nc(-c2ccc(F)cc2)c1-c1ccncc1)c1cnc2ccccc2n1`, for which the inhibition turned out to be 20%.
Still for that read-out and setting: under `O=C(NCc1[nH]nc(-c2ccc(F)cc2)c1-c1ccncc1)c1cccc(C(F)(F)F)c1F` stands 29%.
With `N#Cc1cc(-c2c[nH]nc2-c2ccc(F)cc2)ccn1`, the IC50 worked out at 0.298 µM.
`O=C(NCCCc1[nH]nc(-c2ccc(F)cc2)c1-c1ccncc1)NCc1cccnc1`: the inhibition turned out to be 11%.
The same measure, in the same setting: under `C[C@@H](NC(=O)c1cc(F)ccc1F)c1[nH]nc(-c2ccc(F)cc2)c1-c1ccncc1` stands 67%.
Compound `O=[N+]([O-])c1cc(S(=O)(=O)NCc2[nH]nc(-c3ccc(F)cc3)c2-c2ccncc2)ccc1Cl` had an inhibition of 15%.
Still for that read-out and setting: under `C[C@@H](NC(=O)c1ccccn1)c1[nH]nc(-c2ccc(F)cc2)c1-c1ccncc1` stands 24%.
The same measure, in the same setting: under `C[C@@H](NS(=O)(=O)C[C@@]12CC[C@H](CC1=O)C2(C)C)c1[nH]nc(-c2ccc(F)cc2)c1-c1ccncc1` stands 61%; under `CCCCOc1ccc(S(=O)(=O)NCCc2[nH]nc(-c3ccc(F)cc3)c2-c2ccncc2)cc1`, 29%; under `O=C(NCc1[nH]nc(-c2ccc(F)cc2)c1-c1ccncc1)[C@@H]1CCCN1`, 22%.
On the same count and under the same terms, under `N#Cc1cccc(C(=O)NCCc2[nH]nc(-c3ccc(F)cc3)c2-c2ccncc2)c1` stands 7%; under `C[C@H](NC(=O)c1cc(Cl)cc(Cl)c1)c1[nH]nc(-c2ccc(F)cc2)c1-c1ccncc1`, 3%; under `C[C@@H](NC(=O)N1CCOCC1)c1[nH]nc(-c2ccc(F)cc2)c1-c1ccncc1`, 30%.
`O=C(NCc1[nH]nc(-c2ccc(F)cc2)c1-c1ccncc1)c1cccc(C(F)(F)F)c1` returned an inhibition of 13%.
Still for that read-out and setting: under `C[C@@H](NC(=O)c1ccc(C(F)(F)F)cc1)c1[nH]nc(-c2ccc(F)cc2)c1-c1ccncc1` stands 63%; under `Cc1cccc(C)c1NC(=O)N[C@@H](C)c1[nH]nc(-c2ccc(F)cc2)c1-c1ccncc1`, 42%.
In turn, `Cc1n[nH]c(-c2cccc(Cl)c2)c1-c1ccncc1` yielded an IC50 of 0.074 µM.
